Tested on: PDC 899932-113-R3-J6 complex spheroid viability
Experiment: Anticancer human tumor 899932-113-R3-J6-PDC patient-derived melanoma cell line growth inhibition [RAS]
Details: for IC50: curve of first compound; for viability, T/C: stronger effect = lower value
In short: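 Multi-cell-type spheroids: tumor cells plus HUVEC endothelial cells and mesenchymal stem cells. RAS-pathway inhibitors were combined with targeted agents, each dosed in half-log steps down from clinical Cmax, or from 10 microM when Cmax was unknown.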

[1] = second compound 0.000949 µM, first compound 0.0316 µM
[2] = second compound 0.000949 µM, first compound 0.1 µM
[3] = second compound 0.000949 µM, first compound 0.316 µM
[4] = second compound 0.000949 µM, first compound 1 µM
[5] = second compound 0.000949 µM, first compound 3.16 µM
[6] = second compound 0.000949 µM, first compound 10 µM
[7] = second compound 0.003 µM, first compound 0.0316 µM
[8] = second compound 0.003 µM, first compound 0.1 µM
[9] = second compound 0.003 µM, first compound 0.316 µM
[10] = second compound 0.003 µM, first compound 1 µM
[11] = second compound 0.003 µM, first compound 3.16 µM
[12] = second compound 0.003 µM, first compound 10 µM
[13] = second compound 0.00949 µM, first compound 0.0316 µM
[14] = second compound 0.00949 µM, first compound 0.1 µM
[15] = second compound 0.00949 µM, first compound 0.316 µM
[16] = second compound 0.00949 µM, first compound 1 µM
[17] = second compound 0.00949 µM, first compound 3.16 µM
[18] = second compound 0.00949 µM, first compound 10 µM
[19] = second compound 0.03 µM, first compound 0.0316 µM
[20] = second compound 0.03 µM, first compound 0.1 µM
[21] = second compound 0.03 µM, first compound 0.316 µM
[22] = second compound 0.03 µM, first compound 1 µM
[23] = second compound 0.03 µM, first compound 3.16 µM
[24] = second compound 0.03 µM, first compound 10 µM
[25] = second compound 0.0949 µM, first compound 0.0316 µM
[26] = second compound 0.0949 µM, first compound 0.1 µM
[27] = second compound 0.0949 µM, first compound 0.316 µM
[28] = second compound 0.0949 µM, first compound 1 µM
[29] = second compound 0.0949 µM, first compound 3.16 µM
[30] = second compound 0.0949 µM, first compound 10 µM
[31] = second compound 0.3 µM, first compound 0.0316 µM
[32] = second compound 0.3 µM, first compound 0.1 µM
[33] = second compound 0.3 µM, first compound 0.316 µM
[34] = second compound 0.3 µM, first compound 1 µM
[35] = second compound 0.3 µM, first compound 3.16 µM
[36] = second compound 0.3 µM, first compound 10 µM
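Throughout, for viability, T/C: spheroids exposed to agents for seven days before readout; 100% = DMSO vehicle control wells.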

CC(C)NCC(C(=O)N1CCN(c2ncnc3c2C(C)CC3O)CC1)c1ccc(Cl)cc1 (centres undefined) + CCn1c(-c2cccnc2C(C)OC)c2c3cc(ccc31)N1CCOC(CC(NC(=O)C(C(C)C)N(C)C(=O)C3(F)CCN(C(=O)C#CC(C)(C)N(C)C)CC3)C(=O)N3CCCC(N3)C(=O)OCC(C)(C)C2)C1
IC50 (second compound 0.000949 µM): 5520 nM
IC50 (second compound 0.003 µM): 5970 nM
IC50 (second compound 0.00949 µM): 5590 nM
IC50 (second compound 0.03 µM): 4900 nM
IC50 (second compound 0.0949 µM): 3860 nM
IC50 (second compound 0.3 µM): 2640 nM
viability, T/C [1]: 105%
viability, T/C [2]: 97.3%
viability, T/C [3]: 97%
viability, T/C [4]: 84.2%
viability, T/C [5]: 62.5%
viability, T/C [6]: 36.5%
viability, T/C [7]: 112%
viability, T/C [8]: 106%
viability, T/C [9]: 97.3%
viability, T/C [10]: 80%
viability, T/C [11]: 68.7%
viability, T/C [12]: 36.5%
viability, T/C [13]: 111%
viability, T/C [14]: 107%
viability, T/C [15]: 96%
viability, T/C [16]: 90.7%
viability, T/C [17]: 59.2%
viability, T/C [18]: 39%
viability, T/C [19]: 99.3%
viability, T/C [20]: 105%
viability, T/C [21]: 96.2%
viability, T/C [22]: 80.8%
viability, T/C [23]: 58%
viability, T/C [24]: 38%
viability, T/C [25]: 97.3%
viability, T/C [26]: 97.8%
viability, T/C [27]: 88%
viability, T/C [28]: 71.4%
viability, T/C [29]: 53.8%
viability, T/C [30]: 36.7%
viability, T/C [31]: 89.1%
viability, T/C [32]: 84.8%
viability, T/C [33]: 74.3%
viability, T/C [34]: 60.2%
viability, T/C [35]: 49.5%
viability, T/C [36]: 32.6%

CC(Nc1ccc2c(c1)OCCn1cc(N3C(=O)OCC3C(F)F)nc1-2)C(N)=O (centres undefined) + CCn1c(-c2cccnc2C(C)OC)c2c3cc(ccc31)N1CCOC(CC(NC(=O)C(C(C)C)N(C)C(=O)C3(F)CCN(C(=O)C#CC(C)(C)N(C)C)CC3)C(=O)N3CCCC(N3)C(=O)OCC(C)(C)C2)C1
IC50 (second compound 0.000949 µM): 1620 nM
IC50 (second compound 0.003 µM): 1870 nM
IC50 (second compound 0.00949 µM): 1380 nM
IC50 (second compound 0.03 µM): 1370 nM
IC50 (second compound 0.0949 µM): 650 nM
IC50 (second compound 0.3 µM): 153 nM
viability, T/C [1]: 94.8%
viability, T/C [2]: 78.5%
viability, T/C [3]: 64.5%
viability, T/C [4]: 56.1%
viability, T/C [5]: 43.4%
viability, T/C [6]: 36.1%
viability, T/C [7]: 90.1%
viability, T/C [8]: 80.9%
viability, T/C [9]: 67%
viability, T/C [10]: 55.6%
viability, T/C [11]: 46%
viability, T/C [12]: 34.1%
viability, T/C [13]: 94.7%
viability, T/C [14]: 80.5%
viability, T/C [15]: 66.4%
viability, T/C [16]: 51.2%
viability, T/C [17]: 44.6%
viability, T/C [18]: 36%
viability, T/C [19]: 86.5%
viability, T/C [20]: 75.8%
viability, T/C [21]: 59.8%
viability, T/C [22]: 57.2%
viability, T/C [23]: 40.5%
viability, T/C [24]: 34%
viability, T/C [25]: 79.5%
viability, T/C [26]: 64.7%
viability, T/C [27]: 57%
viability, T/C [28]: 46%
viability, T/C [29]: 39.2%
viability, T/C [30]: 31.8%
viability, T/C [31]: 69.5%
viability, T/C [32]: 52%
viability, T/C [33]: 45%
viability, T/C [34]: 36.9%
viability, T/C [35]: 34.2%
viability, T/C [36]: 29.4%

Source: PubChem BioAssay AID2060895 (Molecular Pharmacology Branch, DTP, NCI, 2025)
